Data reported in article PMC12067145 (ACS Medicinal Chemistry Letters, 2025).

Experiments:
Kir2.2 = Kir2.2 (Homo sapiens, UniProt Q14500); test: Cardiac ion channel MPC selectivity panel; format: cell-based
Kir2.1 = Kir2.1 (Homo sapiens, UniProt P63252); test: Cardiac ion channel MPC selectivity panel; format: cell-based
Tachykinin NK1 = Tachykinin NK1 (Homo sapiens, UniProt P25103); test: Eurofins lead profiling screen (radioligand binding)
Histamine H2 = Histamine H2 (Homo sapiens, UniProt P25021); test: as above
Histamine H3 = Histamine H3 (Homo sapiens, UniProt Q9Y5N1); test: as above
Opiate κ (OP2, KOP) = Opiate κ (OP2, KOP) (Homo sapiens, UniProt P41145); test: as above
Transporter, GABA = Transporter, GABA (Rattus norvegicus, UniProt P23978); test: as above
Melatonin MT1 = Melatonin MT1 (Homo sapiens, UniProt P48039); test: as above
Opiate δ1 (OP1, DOP) = Opiate δ1 (OP1, DOP) (Homo sapiens, UniProt P41143); test: as above
Nicotinic Acetylcholine = test: as above; design: species or system Human
Bradykinin B1 = Bradykinin B1 (Homo sapiens, UniProt P46663); test: as above
[1] = target: Transporter, Dopamine (DAT) (Homo sapiens, UniProt Q01959); test: as above
Thyroid Hormone = test: as above; design: species or system Rat

Histamine H2, sequence (P25021 whole entry): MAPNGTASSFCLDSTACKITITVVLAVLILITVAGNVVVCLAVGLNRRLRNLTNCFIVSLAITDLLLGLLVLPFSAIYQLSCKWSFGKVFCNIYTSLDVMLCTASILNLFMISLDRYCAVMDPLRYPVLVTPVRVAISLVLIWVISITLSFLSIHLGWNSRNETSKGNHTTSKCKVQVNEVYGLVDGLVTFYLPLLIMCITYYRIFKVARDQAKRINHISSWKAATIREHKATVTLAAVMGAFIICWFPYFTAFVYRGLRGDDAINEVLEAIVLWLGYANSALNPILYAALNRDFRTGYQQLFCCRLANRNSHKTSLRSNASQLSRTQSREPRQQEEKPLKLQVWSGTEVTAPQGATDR
Histamine H3, sequence (Q9Y5N1 whole entry): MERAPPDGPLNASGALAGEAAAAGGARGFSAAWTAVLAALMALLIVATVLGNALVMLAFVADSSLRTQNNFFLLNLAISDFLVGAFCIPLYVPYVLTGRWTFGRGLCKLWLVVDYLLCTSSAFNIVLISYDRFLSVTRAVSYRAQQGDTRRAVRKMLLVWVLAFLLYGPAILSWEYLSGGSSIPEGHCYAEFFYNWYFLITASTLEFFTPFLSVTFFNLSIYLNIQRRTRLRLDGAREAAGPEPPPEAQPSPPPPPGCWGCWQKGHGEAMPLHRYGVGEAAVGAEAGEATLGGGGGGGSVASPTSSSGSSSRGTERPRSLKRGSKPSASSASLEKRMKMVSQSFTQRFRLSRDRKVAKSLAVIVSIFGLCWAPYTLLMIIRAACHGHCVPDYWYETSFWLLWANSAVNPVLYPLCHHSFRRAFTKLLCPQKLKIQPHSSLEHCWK
Opiate κ (OP2, KOP), sequence (P41145 whole entry): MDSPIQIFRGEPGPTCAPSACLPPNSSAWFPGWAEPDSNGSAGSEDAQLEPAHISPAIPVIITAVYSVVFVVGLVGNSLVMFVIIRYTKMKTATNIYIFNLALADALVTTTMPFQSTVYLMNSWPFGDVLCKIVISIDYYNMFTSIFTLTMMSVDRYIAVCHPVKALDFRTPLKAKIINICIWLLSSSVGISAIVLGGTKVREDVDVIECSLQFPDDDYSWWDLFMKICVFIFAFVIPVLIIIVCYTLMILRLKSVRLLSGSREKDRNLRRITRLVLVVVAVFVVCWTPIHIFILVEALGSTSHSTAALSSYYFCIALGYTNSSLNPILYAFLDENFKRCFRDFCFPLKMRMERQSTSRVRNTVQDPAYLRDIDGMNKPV
Transporter, Dopamine (DAT), sequence (Q01959 whole entry): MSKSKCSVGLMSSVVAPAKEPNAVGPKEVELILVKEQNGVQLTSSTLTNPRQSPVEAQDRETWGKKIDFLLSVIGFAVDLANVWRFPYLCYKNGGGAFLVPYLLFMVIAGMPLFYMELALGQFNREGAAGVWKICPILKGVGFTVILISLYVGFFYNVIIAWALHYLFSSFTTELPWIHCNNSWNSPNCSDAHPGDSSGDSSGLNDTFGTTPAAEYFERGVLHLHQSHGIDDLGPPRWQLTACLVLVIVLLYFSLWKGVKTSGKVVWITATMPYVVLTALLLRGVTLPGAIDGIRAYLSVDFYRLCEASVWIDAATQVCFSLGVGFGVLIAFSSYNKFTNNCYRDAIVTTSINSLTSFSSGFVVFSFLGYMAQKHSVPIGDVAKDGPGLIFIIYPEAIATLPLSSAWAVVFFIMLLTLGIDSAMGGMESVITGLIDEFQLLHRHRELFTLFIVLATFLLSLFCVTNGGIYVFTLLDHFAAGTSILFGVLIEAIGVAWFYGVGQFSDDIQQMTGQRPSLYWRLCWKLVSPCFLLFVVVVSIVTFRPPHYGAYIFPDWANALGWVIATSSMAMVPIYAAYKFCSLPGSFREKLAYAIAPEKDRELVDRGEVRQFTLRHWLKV
Kir2.2, sequence (Q14500 whole entry): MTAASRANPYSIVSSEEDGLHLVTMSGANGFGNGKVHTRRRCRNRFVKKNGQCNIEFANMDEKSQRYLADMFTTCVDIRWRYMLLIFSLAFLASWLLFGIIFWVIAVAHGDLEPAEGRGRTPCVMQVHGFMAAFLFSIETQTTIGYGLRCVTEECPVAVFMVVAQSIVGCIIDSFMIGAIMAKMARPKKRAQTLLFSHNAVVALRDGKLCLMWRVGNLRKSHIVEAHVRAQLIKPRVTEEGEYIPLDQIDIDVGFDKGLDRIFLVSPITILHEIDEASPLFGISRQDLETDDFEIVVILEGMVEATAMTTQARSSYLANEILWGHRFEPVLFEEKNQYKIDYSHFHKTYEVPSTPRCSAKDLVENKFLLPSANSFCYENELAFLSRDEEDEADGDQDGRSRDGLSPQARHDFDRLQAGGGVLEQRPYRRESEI
Tachykinin NK1, sequence (P25103 whole entry): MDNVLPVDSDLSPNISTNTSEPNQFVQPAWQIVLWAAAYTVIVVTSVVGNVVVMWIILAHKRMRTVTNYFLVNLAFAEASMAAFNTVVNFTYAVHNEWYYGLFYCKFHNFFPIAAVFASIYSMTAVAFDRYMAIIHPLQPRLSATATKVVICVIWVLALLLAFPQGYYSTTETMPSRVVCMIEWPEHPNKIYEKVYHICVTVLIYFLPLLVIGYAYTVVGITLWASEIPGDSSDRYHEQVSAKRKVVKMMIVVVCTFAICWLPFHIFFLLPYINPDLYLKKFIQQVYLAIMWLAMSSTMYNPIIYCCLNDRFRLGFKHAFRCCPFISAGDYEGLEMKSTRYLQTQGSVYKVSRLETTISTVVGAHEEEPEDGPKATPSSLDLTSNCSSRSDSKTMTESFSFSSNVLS
Kir2.1, sequence (P63252 whole entry): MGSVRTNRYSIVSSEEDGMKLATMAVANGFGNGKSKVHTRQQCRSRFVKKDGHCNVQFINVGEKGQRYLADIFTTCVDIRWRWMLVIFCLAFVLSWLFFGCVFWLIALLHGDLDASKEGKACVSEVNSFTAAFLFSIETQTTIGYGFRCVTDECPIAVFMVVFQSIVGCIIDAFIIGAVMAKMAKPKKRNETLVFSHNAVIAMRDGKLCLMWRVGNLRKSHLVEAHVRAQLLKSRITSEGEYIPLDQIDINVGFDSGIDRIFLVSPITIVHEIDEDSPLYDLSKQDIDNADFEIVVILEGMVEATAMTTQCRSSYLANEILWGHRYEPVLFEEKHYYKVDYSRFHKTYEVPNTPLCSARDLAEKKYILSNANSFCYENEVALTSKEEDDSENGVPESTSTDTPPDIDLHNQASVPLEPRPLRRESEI
Opiate δ1 (OP1, DOP), sequence (P41143 whole entry): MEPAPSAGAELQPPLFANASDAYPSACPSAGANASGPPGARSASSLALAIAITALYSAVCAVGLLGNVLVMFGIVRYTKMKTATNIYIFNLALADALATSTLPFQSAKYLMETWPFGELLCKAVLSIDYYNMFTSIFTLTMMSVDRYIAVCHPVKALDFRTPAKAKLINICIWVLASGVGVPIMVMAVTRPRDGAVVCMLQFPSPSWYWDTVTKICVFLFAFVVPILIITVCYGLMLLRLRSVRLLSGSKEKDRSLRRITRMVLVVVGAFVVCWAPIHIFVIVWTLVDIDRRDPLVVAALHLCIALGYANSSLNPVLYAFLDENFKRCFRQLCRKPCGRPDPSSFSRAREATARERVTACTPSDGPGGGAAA
Melatonin MT1, sequence (P48039 whole entry): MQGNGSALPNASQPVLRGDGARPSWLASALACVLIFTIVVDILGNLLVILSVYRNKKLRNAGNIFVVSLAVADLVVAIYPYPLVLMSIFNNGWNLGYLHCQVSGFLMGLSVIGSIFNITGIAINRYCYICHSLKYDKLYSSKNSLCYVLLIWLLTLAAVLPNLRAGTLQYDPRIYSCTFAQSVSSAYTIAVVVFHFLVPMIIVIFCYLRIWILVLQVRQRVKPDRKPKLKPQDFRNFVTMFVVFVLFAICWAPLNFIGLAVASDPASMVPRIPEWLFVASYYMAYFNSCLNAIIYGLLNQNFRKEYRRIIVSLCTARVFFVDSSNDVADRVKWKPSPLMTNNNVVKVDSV
Bradykinin B1, sequence (P46663 whole entry): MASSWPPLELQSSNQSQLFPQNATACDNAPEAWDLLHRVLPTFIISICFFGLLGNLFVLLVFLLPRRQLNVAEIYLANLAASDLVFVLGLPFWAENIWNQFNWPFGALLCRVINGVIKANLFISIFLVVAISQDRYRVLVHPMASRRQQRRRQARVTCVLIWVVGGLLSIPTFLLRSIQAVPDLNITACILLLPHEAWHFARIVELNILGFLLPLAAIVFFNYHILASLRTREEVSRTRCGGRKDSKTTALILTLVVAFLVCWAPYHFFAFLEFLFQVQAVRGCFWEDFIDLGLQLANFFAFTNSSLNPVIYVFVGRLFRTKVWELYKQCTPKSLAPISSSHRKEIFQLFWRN

Structure (SMILES) | % at 10 μM, Kir2.2 (Kir2.2) [%] | % at 10 μM, Kir2.1 (Kir2.1) [%] | inhibition at 10 µM (Tachykinin NK1) [%] | inhibition at 10 µM (Histamine H2) [%] | inhibition at 10 µM (Histamine H3) [%] | inhibition at 10 µM (Opiate κ (OP2, KOP)) [%] | inhibition at 10 µM (Transporter, GABA) [%] | inhibition at 10 µM (Melatonin MT1) [%] | inhibition at 10 µM (Opiate δ1 (OP1, DOP)) [%] | % Inhibition at 10 µM (Nicotinic Acetylcholine) [%] | inhibition at 10 µM (Bradykinin B1) [%] | inhibition at 10 µM [1] [%] | % Inhibition at 10 µM (Thyroid Hormone) [%]
Cc1cc(C#Cc2ccc(F)cc2)cnc1NC(=O)c1cc(NC(=O)OC(C)(C)C)ccc1Cl [Compound 14c] | 52 | < 50 |  |  |  |  |  |  |  |  |  |  | 
O=C(NCc1ccc(OC(F)(F)F)cc1F)c1ccc2ncnn2c1 [ONO-2920632] |  |  | 13 | -12 | 4 | 9 | 19 | 29 | -8 | -10 | 27 | 23 | 3
